# According to PMC5171800, “Genes encoding norcoclaurine synthase occur as tandem fusions in the Papaveraceae” (Scientific Reports, 2016):
# Like-named read-outs stand apart in the source and are kept apart here.
# What was measured:
# CCHNCS2 = tested on: T1, CCHNCS2; experiment: CD spectroscopy at […] nm, (S)-norcoclaurine formation; assay type: biochemical, Corydalis cheilanthifolia; conditions: saturating dopamine; pH 7.3, 37 °C, 50 mM phosphate; 4-HPAA kinetics sigmoidal, table gives Hill coefficient for dopamine
# T1 construct: full-length natural tandem fusion of two NCS domains; His-tagged (pET29b), E. coli, TALON purified (purification section prints CCHNCS1)
# NDONCS3 = tested on: T2, NDONCS3; experiment: as above; assay type: biochemical, Nandina domestica; conditions: pH 7.3, 37 °C, 50 mM phosphate
# T2 construct: full-length single-domain polypeptide with signal peptide region retained; His-tagged (pET29b), E. coli, TALON purified
# O=CCc1ccc(O)cc1 = experiment: purified protein; assay type: biochemical, Thalictrum flavum; conditions: saturating dopamine, pH 7.3, 37 °C, 50 mM phosphate, 4-HPAA kinetics sigmoidal, table gives Hill coefficient for dopamine
compound,measurement,setting,value
O=CCc1ccc(O)cc1 [4-hydroxyphenylacetaldehyde],Km,CCHNCS2,1830 ± 697 µM
same,Km,"NDONCS3; saturating dopamine, 4-HPAA kinetics sigmoidal, table gives Hill coefficient for dopamine, read-out: Km (μM) (4-HPAA)",480 ± 120 µM
TFLNCS2Δ25 (Thalictrum flavum),Km,O=CCc1ccc(O)cc1,494 ± 112 µM
same,kcat,O=CCc1ccc(O)cc1,2.4 ± 0.2 s⁻¹
NCCc1ccc(O)c(O)c1 [dopamine],Km,"NDONCS3; saturating 4-HPAA, Hill fit by table (the source assigns sigmoidal kinetics to 4-HPAA), read-out: K’m (μM) (dopamine)",347 ± 35 µM
